Measured values from patent publication US6352836B1 (priority 1997, dated 2002).
Read-outs that look alike come from different tables or passages of the source.

Target: PHIS-PDiTPx2235 (Dirofilaria immitis, UniProt O17433)
Type: biochemical, D. immitis
Conditions: for Percent protection (Mean ± SD): PHIS-PDiTPx2235 0.75 mg/ml, DTT 10 mM

Chain of PHIS-PDiTPx2235 (O17433 whole entry, looked up): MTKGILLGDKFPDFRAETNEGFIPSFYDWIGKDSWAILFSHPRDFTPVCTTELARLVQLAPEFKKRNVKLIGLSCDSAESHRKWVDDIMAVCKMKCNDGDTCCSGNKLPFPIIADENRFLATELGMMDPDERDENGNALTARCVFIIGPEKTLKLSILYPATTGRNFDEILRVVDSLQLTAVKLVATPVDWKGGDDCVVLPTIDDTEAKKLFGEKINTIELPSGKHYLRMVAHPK

SMILES: CCN1C(=O)C=CC1=O [NEM, N-ethylmaleimide]
- Percent protection (Mean ± SD) (NEM 0.1 mM): 97.3 ± 2.40%
- Percent protection (Mean ± SD) (NEM 1.0 mM): 76.7 ± 1.13%
- Percent protection (Mean ± SD) (NEM 2.0 mM): 77.9 ± 1.87%
- Percent protection (Mean ± SD) (NEM 4.0 mM): 58.4 ± 1.57%
- Percent protection (Mean ± SD) (NEM 8.0 mM): 21.1 ± 0.33%
- Percent protection (Mean ± SD) (NEM 16.0 mM): 0.0 ± 0.0%
- Percent protection (Mean ± SD) (NEM 32.0 mM): 0.0 ± 0.0%
- inhibition of H2O2 removal by PHIS-PDiTPx2235 (inhibition concentration dependent (Table 5)): prevented PHIS-PDiTPx2235 from removing H2O2
